Laboratory results published in publication PMC10533593 (Molecular Neurobiology, 2023).

Tests used:
[1] = target: T1, α1AR-D4.4R (D4.4R read-out) (Homo sapiens, UniProt P21917); assay: BRET beta-arrestin-2-Rluc recruitment to alpha1AR-YFP in HEK-293T; format: cell-based
T1 construct: gene DRD4; D4.4R (non-fused) co-expressed with alpha1AR in HEK-293T; alpha1AR non-fused in Gi assay, alpha1AR-YFP in beta-arrestin-2 assay; with Alpha-1A adrenergic receptor
T1 sequence (P21917 1-419): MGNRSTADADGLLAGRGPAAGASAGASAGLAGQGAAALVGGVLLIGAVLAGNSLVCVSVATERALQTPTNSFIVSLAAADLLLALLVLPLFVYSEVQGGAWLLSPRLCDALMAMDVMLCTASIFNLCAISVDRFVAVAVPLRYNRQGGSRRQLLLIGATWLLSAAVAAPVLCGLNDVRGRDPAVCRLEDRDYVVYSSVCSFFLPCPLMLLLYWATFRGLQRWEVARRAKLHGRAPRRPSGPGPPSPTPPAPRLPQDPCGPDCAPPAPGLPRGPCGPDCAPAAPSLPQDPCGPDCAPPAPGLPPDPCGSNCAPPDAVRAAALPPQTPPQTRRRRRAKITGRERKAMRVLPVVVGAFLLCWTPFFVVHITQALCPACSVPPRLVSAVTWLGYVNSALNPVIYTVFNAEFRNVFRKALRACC
T1 sequence (P35348 1-466 partner): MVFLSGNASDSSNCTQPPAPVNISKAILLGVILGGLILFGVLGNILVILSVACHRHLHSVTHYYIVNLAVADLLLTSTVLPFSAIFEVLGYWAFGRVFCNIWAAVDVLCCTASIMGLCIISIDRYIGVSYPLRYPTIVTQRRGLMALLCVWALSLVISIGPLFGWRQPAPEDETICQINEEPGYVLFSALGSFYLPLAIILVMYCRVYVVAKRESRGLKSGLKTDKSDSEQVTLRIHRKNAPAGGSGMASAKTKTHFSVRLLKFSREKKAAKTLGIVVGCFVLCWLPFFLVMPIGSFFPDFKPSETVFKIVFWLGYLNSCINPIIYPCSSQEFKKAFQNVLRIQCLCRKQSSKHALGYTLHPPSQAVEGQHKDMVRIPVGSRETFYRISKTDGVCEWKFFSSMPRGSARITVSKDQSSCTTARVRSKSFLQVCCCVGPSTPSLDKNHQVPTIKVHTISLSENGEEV
Description: BRET beta-arrestin-2-Rluc recruitment to alpha1AR-YFP in HEK-293T on α1AR-D4.4R (D4.4R read-out)

D4.4R = target: T2, D4.4R (Homo sapiens, UniProt P21917); format: cell-based; conditions: antagonist 1 μM, added 10 min before dopamine; D4.4R alone
T2 construct: gene DRD4; non-fused full-length human D4.4R in pcDNA3.1, transiently expressed in HEK-293T without alpha1AR; Galphai1-Rluc, Ggamma2-YFP and Gbeta1 reporters co-transfected
T2 sequence (P21917 1-419): T1 sequence (P21917 1-419)

α1AR [2] = target: T3, α1AR (Homo sapiens, UniProt P35348); assay: BRET Gq and Gs activation in HEK-293T; format: cell-based; conditions: agonist; alpha1AR alone; 10 μM dopamine; intact cells
T3 construct: gene ADRA1A; non-fused full-length human alpha1AR in pcDNA3.1, transiently expressed in HEK-293T without D4R; Galphaq-Rluc or Galphas-Rluc, Ggamma2-YFP and Gbeta1 reporters co-transfected
T3 sequence (P35348 1-466): T1 sequence (P35348 1-466 partner)

α1AR [3] = target: T3, α1AR; format: cell-based; conditions: antagonist 1 μM, added 10 min before A61603; alpha1AR alone
[4] = target: human α1A adrenoreceptor fused to Rluc (human) (UniProt P35348); assay: FRET or BRET; BRET saturation in intact HEK-293T cells: constant amount of cDNA of the Rluc-fused receptor, increasing amounts of cDNA of the YFP-fused receptor; coelenterazine H 5 μM; HBSS with 0.1% glucose; single-phase saturation fit
[5] = target: human dopamine D4 receptor, polymorphic variant D4.4R, fused to Rluc (human) (UniProt P21917); assay: as above

With Cc1cccc(NC(=O)CN2CCC(c3ccccn3)CC2)c1 [A412997] the EC50 [1] was 30 ± 19 nM.

Clc1ccc(N2CCN(Cc3c[nH]c4ncccc34)CC2)cc1 [L745870] was tested, and the “BRET Gi1 activation in HEK-293T, antagonism of dopamine” value (D4.4R) was “the selective D4R antagonist L745870, but not the α1AR antagonist prazosin, antagonized the effect of dopamine”.

In the case of NCCc1ccc(O)c(O)c1 [dopamine], the “% of norepinephrine effect at 10 μM” value (α1AR [2]) is reported as < 50%.

For COc1cc2nc(N3CCN(C(=O)c4ccco4)CC3)nc(N)c2cc1OC [prazosin], the “BRET Gq and Gs activation in HEK-293T, antagonism of A61603” value (α1AR [3]) was “the effect of A61603 was counteracted by prazosin”.

Compound “human dopamine D4 receptor, polymorphic variant D4.7R, fused to YFP” has a BRET50 [4] of 25.

For “human α1A adrenoreceptor fused to YFP (from UniProt P35348 1-466)”, the BRET50 [5] was 33.
